The text below walks through data of US7432303B2, “Chalcone and its analogs as agents for the inhibition of angiogenesis and related disease states” (James and Emory University, priority 1999, dated 2008).

SMILES strings stand for the structures. Read-outs that look alike come from different tables or passages of the source.

The assay deals with SVR cells. Description: SVR cell assay: cell numbers counted at 48 hours, percent inhibition versus control. Format: cell-based, murine. The settings on record: for inhibition at 1 µg/mL: read-out: Percent Inhibition at a Specified Density (μg/ml): 1; for inhibition at 3 µg/mL: read-out: Percent Inhibition at a Specified Density (μg/ml): 3; for inhibition at 6 µg/mL: read-out: Percent Inhibition at a Specified Density (μg/ml): 6.

Where [1] appears, read: Mus musculus, 1 μg/ml, 10,000 SVR cells in 24 well dish, counted at 48 hours.
[2] abbreviates: Mus musculus, 3 μg/ml, 10,000 SVR cells in 24 well dish, counted at 48 hours.
Where [3] appears, read: Mus musculus, 6 μg/ml, 10,000 SVR cells in 24 well dish, counted at 48 hours.
Setting [4] is: 1 μg/ml, 10,000 SVR cells in 24 well dish, counted at 48 hours.
Where [5] appears, read: 3 μg/ml, 10,000 SVR cells in 24 well dish, counted at 48 hours.
The mark [6] stands for this setting: 6 μg/ml, 10,000 SVR cells in 24 well dish, counted at 48 hours.
Where [7] appears, read: 9 μg/ml, 10,000 SVR cells in 24 well dish, counted at 48 hours.

Experimental: In the case of testing the anti-angiogenic/anti-cancer activity of compounds according to the present invention, an assay based on SVR cells may be employed. […] The cell numbers are counted and compared against controls. Percent inhibition is readily determined from the data obtained.
10,000 SVR cells were seeded in a 24 well dish [Arbiser, et al., J. Am. […] The cell numbers were counted at 48 hours.

As to `O=C(/C=C/c1c(F)c(F)c(F)c(F)c1F)c1ccccc1` [Compound 35, 2,3,4,5,6-Pentafluorochalcone], the inhibition at 1 µg/mL under setting [1] was 0%. The inhibition at 3 µg/mL under setting [2] turned out to be 0%. The inhibition at 6 µg/mL under setting [3] is 0%.
Take `O=C(/C=C/c1ccco1)/C=C/c1ccco1` [Compound 74, 1,5-Di(2-furyl)-1E,4E-pentadien-3-one]: the inhibition at 1 µg/mL under setting [1] came to 0%. In addition, the inhibition at 3 µg/mL under setting [2] worked out at 9.3%. Further, the inhibition at 6 µg/mL under setting [3] came to 56.5%.
For `Cc1ccc(C(=O)/C=C/c2ccc(C(C)C)cc2)cc1` [Compound 26, 4-Isopropyl-4′-methylchalcone] the same measures were 19.5%, 14.2% and 59.2%.
Turning to `O=C1C(=Cc2c(Cl)cccc2Cl)COc2ccccc21` [Compound 67, 3-(2,6-Dichlorobenzylidene)chromanone], the “Percent Inhibition at a Specified Density (μg/ml): 1” value (shortened to “Percent Inhibition … 1”) under setting [4] was determined as 5.4%. In addition, the “Percent Inhibition at a Specified Density (μg/ml): 3” value (“Percent Inhibition … 3” below) under setting [5] is on record as 3.6%. Also, the “Percent Inhibition at a Specified Density (μg/ml): 6” value (“Percent Inhibition … 6” below) under setting [6] is reported as 12.5%.
As for `Cc1ccc(C(=O)/C=C/c2ccc(Cl)cc2Cl)cc1` [Compound 27, 2,4-Dichloro-4′-methylchalcone], the inhibition at 1 µg/mL under setting [1] was determined as 19.9%. In addition, the inhibition at 3 µg/mL under setting [2] came to 10.4%. Moreover, the inhibition at 6 µg/mL under setting [3] turned out to be 84.6%.
On the same counts, the results for `CC(=O)c1cc2ccccc2oc1=O` [Compound 13, 3-Acetylcoumarin, reference compound] are 26%, 4.9% and 13%.
As to `CC(=O)/C=C/c1ccccc1` [Compound 5, 4-Phenyl-3E-buten-2-one], for the setting “Mus musculus, SVR, 48 h”, the inhibition at 1 µg/mL came to 41.9%, the inhibition at 3 µg/mL is 69% and the inhibition at 6 µg/mL stood at 64%.
In the case of `O=C(C=Cc1ccco1)c1ccccc1` [Compound 45, 3-(2-Furyl)-1-phenylpropenone], the “Percent Inhibition … 1” value under setting [4] is on record as 9.8%. The “Percent Inhibition … 3” value under setting [5] amounted to 1.0%. Under setting [6], the “Percent Inhibition … 6” value is listed as 0.0%.
Consider `O=C(C=Cc1ccc2ccccc2c1)c1cccc2ccccc12` [Compound 64, 1-(1-Naphthyl)-3-(2-naphthyl)propenone], for which the “Percent Inhibition … 1” value under setting [4] came to 0.0%. Further, the “Percent Inhibition … 3” value under setting [5] amounted to 22.4%. Moreover, the “Percent Inhibition … 6” value under setting [6] was 52.0%.
`O=C(C=Cc1cccc2ccccc12)c1cccc2ccccc12` [Compound 65, 1,3-Di(1-naphthyl)propenone]: the “Percent Inhibition … 1” value under setting [4] came out at 12.0%. Besides, the “Percent Inhibition … 3” value under setting [5] turned out to be 55.5%. Besides, the “Percent Inhibition … 6” value under setting [6] is recorded as 60.3%.
Consider `O=C(/C(Br)=C/c1ccccc1)c1ccccc1` [Compound 41, α-Bromo-Z-chalcone], for which the “Percent Inhibition … 1” value under setting [4] stood at 57.2%. The “Percent Inhibition … 3” value under setting [5] turned out to be 75.7%. The “Percent Inhibition … 6” value under setting [6] was 79.8%.
On to `Cc1ccc(/C=C/C(=O)c2ccc(C)cc2)cc1` [Compound 20, 4,4′-Dimethylchalcone], for which, under setting [1], the inhibition at 1 µg/mL was found to be 36.6%. Moreover, the inhibition at 3 µg/mL under setting [2] is 67.3%. For the same molecule, under setting [3], the inhibition at 6 µg/mL was determined as 89.5%.
For `COc1cccc(OC)c1C(=O)/C=C/c1c(Cl)cccc1Cl` [Compound 40, 2,6-Dichloro-2′,6′-dimethoxychalcone] the same measures were 23.2%, 43.7% and 52.3%.
For `O=C(/C=C/c1ccc(OCc2ccccc2)cc1)c1ccc(Cl)cc1` [Compound 25, 4-Benzyloxy-4′-chlorochalcone] the same measures were 25.6%, 4.4% and 62.9%.
On to `O=C(/C=C/c1c(Cl)cccc1Cl)c1ccccc1` [Compound 31, 2,6-Dichlorochalcone], for which the inhibition at 3 µg/mL under setting [2] was 92.9%. Further, under setting [3], the inhibition at 6 µg/mL came out at 97.5%. Further, the inhibition at 9 µg/mL (Mus musculus, 9 μg/ml, 10,000 SVR cells in 24 well dish, counted at 48 hours, read-out: Percent Inhibition at a Specified Density (μg/ml): 9) is 97.9%.
For `O=C(C=Cc1ccccc1)c1ccco1` [Compound 44, 1-(2-Furyl)-3-phenylpropenone], the “Percent Inhibition … 1” value under setting [4] is 28.2%. The “Percent Inhibition … 3” value under setting [5] stood at 57.7%. In addition, the “Percent Inhibition … 6” value under setting [6] was found to be 90.2%.
As to `O=c1cc(-c2ccccc2)oc2ccccc12` [Compound 14, Flavone, reference compound], under setting [1], the inhibition at 1 µg/mL was 19.3%. The inhibition at 3 µg/mL under setting [2] was 26.3%. Under setting [3], the inhibition at 6 µg/mL worked out at 46.7%.
For `O=C(/C=C/c1c(F)c(F)c(F)c(F)c1F)c1c(F)c(F)c(F)c(F)c1F` [Compound 34, 2,2′,3,3′,4,4′,5,5′,6,6′-Decafluorochalcone] the same measures were 31.1%, 88.6% and 88.6%.
Consider `CC(=O)c1cc2cc(Br)ccc2oc1=O` [Compound 12, 3-Acetyl-6-bromocoumarin, reference compound], for which the inhibition at 1 µg/mL under setting [1] was determined as 20%. Besides, the inhibition at 3 µg/mL under setting [2] is 12.7%. Moreover, under setting [3], the inhibition at 6 µg/mL worked out at 17.4%.
In the case of `Cc1ccc(/C=C/C(=O)c2ccc(Cl)cc2)cc1` [Compound 29, 4′-Chloro-4-methylchalcone], the inhibition at 1 µg/mL under setting [1] amounted to 29.9%. For the same molecule, the inhibition at 3 µg/mL under setting [2] is 40.2%. Further, under setting [3], the inhibition at 6 µg/mL is 58.5%.
On the same counts, the results for `Cc1ccc(C(=O)/C=C/c2ccccc2Cl)c(C)c1` [Compound 21, 2-Chloro-2′,4′-dimethylchalcone] are 29.6%, 25.2% and 73.4%.
For `Cc1ccc(C(=O)/C=C/c2ccc(Cl)cc2)cc1` [Compound 30, 4-Chloro-4′-methylchalcone] the same measures were 22.3%, 24.5% and 46.5%.
For `O=C(/C=C/c1c(Cl)cccc1Cl)/C=C/c1c(Cl)cccc1Cl` [Compound 73, 1,5-Bis(2,6-dichlorophenyl)-1E,4E-pentadien-3-one] the same measures were 60.7%, 87.1% and 90.4%.
On to `O=C(C=Cc1ccco1)c1ccco1` [Compound 43, 1,3-Bis(2-furyl)propenone], for which the “Percent Inhibition … 1” value under setting [4] is 7.7%. Further, under setting [5], the “Percent Inhibition … 3” value turned out to be 8.1%. Also, the “Percent Inhibition … 6” value under setting [6] is listed as 12.0%.
For the molecule `O=C1C(=Cc2ccccc2)CCc2ccccc21` [Compound 68, 2-(Benzylidene)tetralone], the “Percent Inhibition … 3” value under setting [5] is recorded as 57.9%. Further, the “Percent Inhibition … 6” value under setting [6] is given as 97.5%. For the same molecule, the “Percent Inhibition at a Specified Density (μg/ml): 9” value under setting [7] is 96.7%.
On to `O=C(C=Cc1ccc2ccccc2c1)c1ccccc1` [Compound 62, 3-(2-Naphthyl)-1-phenylpropenone], for which the “Percent Inhibition … 3” value under setting [5] was determined as 29.5%. Besides, the “Percent Inhibition … 6” value under setting [6] was determined as 44.3%. The “Percent Inhibition at a Specified Density (μg/ml): 9” value under setting [7] is listed as 69.1%.
For the molecule `Cc1ccc(C(=O)/C=C/c2c(Cl)cccc2Cl)cc1` [Compound 28, 2,6-Dichloro-4′-methylchalcone], the inhibition at 1 µg/mL under setting [1] was 73.7%. The inhibition at 3 µg/mL under setting [2] was 98.2%. The inhibition at 6 µg/mL under setting [3] was 98.1%.
